Measured values: patent EP0579169B1, “Alkylenediamine derivatives” (NIPPON CHEMIPHAR CO., LTD., priority 1992, dated 1994)

What was measured:
[1] = tested on: rhythmic bladder contraction; assay: Test for inhibition of urinating contraction of bladder (rhythmic bladder contraction, anesthetized rat, saline infusion into the closed bladder); format: in vivo; details: i.v., urethane-anesthetized male Wistar rat, control (physiological saline) 1.6 min.
Protocol: (I) Test for Inhibition of Urinating Contraction of Bladder
With respect to inhibition of the urinating contraction of bladder, performance of the compound of the present invention was evaluated by the following method.
A male Wistar rat was anesthetized with urethane (1.5 g/kg, s.c.) and fixed on its back on a board. Into the trachea of the rat, a tracheotomy tube was inserted in order to insure an airway, and then midline incisura was carried out to denude the bladder. Subsequently, a small opening was produced on the top of the bladder and the urine was exhausted, and then a polyethylene cannula (diameter: approx. 1 mm) was inserted into the bladder. The urethra and the ureter were tied up to make the bladder a closed system.
By means of an infusion pump, phsiological saline was poured into the bladder of rat at a rate of 0.05 ml/min. induce the rhythmic bladder contraction. Subsequently, intravesical pressure was measured by a pressure transducer and recorded on a pen-writing recorder. The test compound was dissolved in physiological saline and then administered into the femoral vein through a polyethylene cannula.
Performance for inhibiting the urinary bladder contraction was evaluated by measuring the period (inhibiting period) in which the rhythmic bladder contraction was inhibited. As the medicament, each of the compounds obtained in Examples was used.

[2] = Toxicity, LD50 by the up-and-down method; format: in vivo; details: mouse, in vivo, iv
Text: (§1) With respect to toxicity of the compounds of the invention, each LD50 (mg/kg) measured by the up-and-down method is also set forth in Table 1.

Urinary bladder strips = assay: Effect on isolated urinary bladder smooth muscle (contraction elicited by acetylcholine or norepinephrine); parameters: species or system male Japanese white rabbits; details: rabbit urinary bladder strips, Krebs solution 37°C; pretreatment five minutes before, concentration 1x10^-5 to 3x10^-5 (unit not given)
Protocol: (II) Effect on Isolated Urinary Bladder Smooth Muscle
Urinary bladder strips were obtained from male Japanese white rabbits (weight: 2.00-2.80 kg). Each strip was suspended in an organ bath containing Krebs solution. The organ bath was maintained at 37°C and constantly gassed with carbogen. Cumulative concentration-response curves of acetylcholine and norepinephrine were obtained.
The compound to be tested (compound of Example 2 (i.e., 5-benzyl-3-(3-morpholino-1-phenylpropyl)-1,3-oxazolidin-2-one fumarate) was introduced into the Krebs solution five minutes prior to the introduction of acetylcholine or norepinephrine to elicit the contractive action.
Therefore, it has been confirmed that the tested compound depresses the bladder contraction not by acting on the peripheral nerves system but on the central nurves system.

mouse = assay: Toxicity, LD50 by the up-and-down method; format: in vivo; details: i.v.
Text: as §1

O=C(O)/C=C/C(=O)O.O=C1OC(Cc2ccccc2)CN1C(CCN1CCOCC1)c1ccccc1 (single isomer, unassigned) [Example 2, 5-Benzyl-3-(3-morpholino-1-phenylpropyl)-1,3-oxazolidin-2-one fumarate]
Period (inhibiting period in which the rhythmic bladder contraction was inhibited) ([1]; dose 8 mg/kg, fumarate): 5.4 min | LD50 [2]: 76 mg/kg | action on the contraction caused by acetylcholine (Urinary bladder strips): did not give any effective action | action on the contraction caused by norepinepherine (Urinary bladder strips): did not give any effective action

O=C(O)/C=C/C(=O)O.O=C1OC(Cc2ccccc2Br)CN1C(CCN1CCOCC1)c1ccccc1 (single isomer, unassigned) [Example 13, 5-(2-Bromophenyl)methyl-3-(3-morpholino-1-phenylpropyl)-1,3-oxazolidin-2-one fumarate]
Period (inhibiting period in which the rhythmic bladder contraction was inhibited) ([1]; dose 5 mg/kg): 6.5 min | LD50 [2]: 48 mg/kg

O=C(O)/C=C/C(=O)O.O=C1OC(CCc2ccccc2Br)CN1C(CCN1CCOCC1)c1ccccc1 (single isomer, unassigned) [Example 25, 5-[2-(2-bromophenyl)ethyl]-3-(3-morpholino-1-phenylpropyl)-1,3-oxazolidin-2-one fumarate]
Period (inhibiting period in which the rhythmic bladder contraction was inhibited) ([1]; dose 8 mg/kg): 7.5 min | LD50 [2]: 79 mg/kg

O=C(O)/C=C/C(=O)O.O=C1OC(CCc2ccccc2Cl)CN1C(CCN1CCOCC1)c1ccccc1 (single isomer, unassigned) [Example 27, 5-[2-(2-Chlorophenyl)ethyl]-3-(3-morpholino-1-phenylpropyl)-1,3-oxazolidin-2-one fumarate]
Period (inhibiting period in which the rhythmic bladder contraction was inhibited) ([1]; dose 8 mg/kg): 8.0 min | LD50 [2]: 75 mg/kg

CS(=O)(=O)O.O=C1OC(Cc2cccc3ccccc23)CN1C(CCN1CCOCC1)c1ccccc1 (single isomer, unassigned) [Example 46, 5-(1-Naphthyl)methyl-3-(3-morpholino-1-phenylpropyl)-1,3-oxazolidin-2-one mesylate]
Period (inhibiting period in which the rhythmic bladder contraction was inhibited) ([1]; dose 5 mg/kg): 6.0 min | LD50 [2]: > 20 mg/kg

O=C(O)/C=C/C(=O)O.O=C1OC(CCc2ccccc2)CN1C(CCN1CCOCC1)c1ccccc1 (single isomer, unassigned) [Example 50, 3-(3-Morpholino-1-phenylpropyl)-5-(2-phenylethyl)-1,3-oxazolidin-2-one fumarate]
Period (inhibiting period in which the rhythmic bladder contraction was inhibited) ([1]; dose 5 mg/kg): 7.5 min | LD50 [2]: 45 mg/kg

O=C(O)/C=C/C(=O)O.O=C1OC(Cc2cccs2)CN1C(CCN1CCOCC1)c1ccccc1 (single isomer, unassigned) [Example 55, 3-(3-Morpholino-1-phenylpropyl)-5-(2-thenyl)-1,3-oxazolidin-2-one fumarate]
Period (inhibiting period in which the rhythmic bladder contraction was inhibited) ([1]; dose 8 mg/kg): 4.6 min | LD50 [2]: 84 mg/kg

O=C(O)/C=C/C(=O)O.O=C1OC(Cc2cccs2)CN1C(CCN1CCOCC1)c1ccccc1 (single isomer, unassigned) [Example 56, 3-(3-Morpholino-1-phenylpropyl)-5-(2-thenyl)-1,3-oxazolidin-2-one fumarate]
Period (inhibiting period in which the rhythmic bladder contraction was inhibited) ([1]; dose 11 mg/kg): 4.7 min | LD50/mouse (mouse; fumarate): 111 mg/kg

O=C1OC(Cc2ccccc2)CN1C(CCN1CCOCC1)c1cccs1 (single isomer, unassigned) [Example 61, 5-Benzyl-3-[3-morpholino-1-(2-thienyl)propyl]-1,3-oxazolidin-2-one]
Period (inhibiting period in which the rhythmic bladder contraction was inhibited) ([1]; dose 6 mg/kg): 6.5 min | LD50 [2]: 59 mg/kg

O=C1OC(Cc2ccccc2)CN1C(CCN1CCOCC1)c1cccs1 (single isomer, unassigned) [Example 62, 5-Benzyl-3-[3-morpholino-1-(2-thienyl)propyl]-1,3-oxazolidin-2-one]
Period (inhibiting period in which the rhythmic bladder contraction was inhibited) ([1]; dose 6 mg/kg): 7.2 min | LD50/mouse (mouse): 63 mg/kg

CC(C)CC1COC(=O)N1C(CCN1CCOCC1)c1ccccc1.O=C(O)/C=C/C(=O)O (single isomer, unassigned) [Example 67, 4-Isobutyl-3-(3-morpholino-1-phenylpropyl)-1,3-oxazolidin-2-one fumarate]
Period (inhibiting period in which the rhythmic bladder contraction was inhibited) ([1]; dose 14 mg/kg): 3.5 min | LD50 [2]: 137 mg/kg

O=C(O)/C=C/C(=O)O.O=C1OCC(Cc2ccccc2)N1C(CCN1CCOCC1)c1ccccc1 (single isomer, unassigned) [Example 69, 4-Benzyl-3-(3-morpholino-1-phenylpropyl)-1,3-oxazolidin-2-one fumarate]
Period (inhibiting period in which the rhythmic bladder contraction was inhibited) ([1]; dose 8 mg/kg): 6.6 min | LD50 [2]: 76 mg/kg

O=C(O)/C=C/C(=O)O.O=C1COC(Cc2ccccc2Br)CN1C(CCN1CCOCC1)c1ccccc1 (single isomer, unassigned) [Example 70, 2-(2-Bromobenzyl)-4-(3-morpholino-1-phenylpropyl)-5-morpholinone fumarate]
Period (inhibiting period in which the rhythmic bladder contraction was inhibited) ([1]; dose 6 mg/kg): 1.5 min | LD50 [2]: > 60 mg/kg

O=C(O)/C=C/C(=O)O.O=C1OC(Cc2ccccc2)CN1C(CCN1CCOCC1)c1ccccc1 (single isomer, unassigned; (+)) [Example 4, (+)-5-Benzyl-3-(3-morpholino-1-phenylpropyl)-1,3-oxazolidin-2-one fumarate]
Period (inhibiting period in which the rhythmic bladder contraction was inhibited) ([1]; dose 8 mg/kg, fumarate): 3.8 min | LD50/mouse (mouse; fumarate): 77 mg/kg

O=C(O)/C=C/C(=O)O.O=C1OC(Cc2ccccc2)CN1C(CCN1CCOCC1)c1ccccc1 (single isomer, unassigned; (-)) [Example 3, (-)-5-Benzyl-3-(3-morpholino-1-phenylpropyl)-1,3-oxazolidin-2-one fumarate]
Period (inhibiting period in which the rhythmic bladder contraction was inhibited) ([1]; dose 8 mg/kg, fumarate): 6.0 min | LD50/mouse (mouse; fumarate): 49 mg/kg
